Here are results for two compounds from patent US20260191968A1, “PROTAC DEGRADERS OF MLLT1 AND/OR MLLT3” (DARK BLUE THERAPEUTICS LTD, priority 2024, published 2026).

What all share (format): cell-based
Assay [1] deals with T1, MLLT1 (Homo sapiens, UniProt Q03111).
T1 construct: host or cells: MV4-11
T1 sequence (Q03111 1-559): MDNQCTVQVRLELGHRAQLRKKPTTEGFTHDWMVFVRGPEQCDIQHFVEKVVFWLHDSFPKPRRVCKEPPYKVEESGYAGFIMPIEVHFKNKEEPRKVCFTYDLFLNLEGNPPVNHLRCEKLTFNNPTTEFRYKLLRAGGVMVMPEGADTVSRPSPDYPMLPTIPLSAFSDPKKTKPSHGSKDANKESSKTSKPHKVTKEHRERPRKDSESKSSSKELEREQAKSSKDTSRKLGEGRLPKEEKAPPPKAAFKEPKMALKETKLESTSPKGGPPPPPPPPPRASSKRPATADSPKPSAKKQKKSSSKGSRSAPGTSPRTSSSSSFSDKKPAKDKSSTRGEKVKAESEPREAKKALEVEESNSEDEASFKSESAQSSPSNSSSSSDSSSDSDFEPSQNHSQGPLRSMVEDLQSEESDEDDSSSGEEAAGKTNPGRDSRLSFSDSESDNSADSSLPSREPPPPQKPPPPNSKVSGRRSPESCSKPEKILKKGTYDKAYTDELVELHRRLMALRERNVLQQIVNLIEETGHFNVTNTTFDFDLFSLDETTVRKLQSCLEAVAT
Put plainly: MLLT1 degradation assay in MV4-11 cells (JESS chemiluminescent detection), three concentrations, 24 h. As to conditions: with respect to DMSO control. In outline: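 Read-out is % MLLT1 degradation versus DMSO, from band peak areas on a JESS chemiluminescent system. Cells (MV4-11) were exposed for 24 h at 37° C to three compound levels, 10, 100 and 1000 nM, in 0.1% DMSO.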

For assay [2], the target named is T1, MLLT1. Put plainly: MLLT1 DC50 and Dmax determination in MV4-11 cells (JESS), dose response, 4 h. Conditions: MLLT1 degradation; for Dmax: maximum % degradation observed. On the procedure:
MLLT1 degradation efficacy of compounds was tested in an automated chemiluminescent detection system (JESS, Cat #004-650). MV4-11 (#CRL-9591, ATCC) were seeded at a density of 1.2 million cells/well in a non-treated 6-well cell culture plate in 2.4 mL of complete medium (IMDM+10% FBS+1X Penicillin-Streptomycin). 10 mM DMSO stocks were prepared, and cells were treated with eight concentrations of test compounds, starting from 100 nM, 5-fold dilution, at a final DMSO concentration of 0.1% and incubated for 4 h at 37° C., 5% CO2. Post incubation, cells were centrifuged, washed with HBSS and lysed in 60 μL of RIPA buffer supplemented with Protease inhibitors (sc-24948; Santa Cruz). Protein estimation was done using BCA protein assay kit (23228; Pierce). 4 μg protein lysate (4 μL of 1 μg/μL lysate) was loaded into each well of the JESS cartridge (SM-W004; Bio-techne) and the JESS run was performed using 1:900 dilution of anti-human MLLT1 antibody (ABE2596; Merck) and 1:1200 dilution of anti-human GAPDH antibody (2118; Cell signaling technology) with anti-rabbit secondary detection module (DM-001; Bio-Techne). Post run, data was analysed using “Compass for SW” software for chemiluminescent detection. Peak fit was done using “dropped lines” method. Peak area for MLLT1 and GAPDH was used for the calculation of MLLT1 degradation with respect to DMSO control. Data was shown as “% degradation”. % Degradation was plotted against the respective doses (test compound concentration) and dose-response curve (DRC) was generated using four-parameter logistic equation (non-linear regression). Following parameters for each DRC was captured: DC50 (concentration in nM at which degradation is 50%, interpolated from standard curve and transformed to linear scale), Dmax (maximum % degradation observed). DC50 and Dmax data are captured in Table 9 for Example 8 and Example 234, which is a comparative example.

The next assay concerns MV4-11 cells. Put plainly: MV4-11 cellular proliferative assay, Assay Format B (CTG 2.0, 168 h). As to conditions: Homo sapiens. In outline: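 Viability read by CellTiter-Glo 2.0 luminescence after 7-day (168 h) compound exposure of MV4-11 cells in IMDM/10% FBS. Ten 3-fold concentrations starting at 1 uM or 100 nM, 0.3% final DMSO; curves normalised to DMSO control, four-parameter fit.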

The mark [3] stands for this setting: Assay Method B, read-out: MV4-11 Antiproliferation IC50.

The structures appear in SMILES notation. Where two headings read alike, the source gives them in different places.

By DC50 is commonly meant the concentration at which degradation of the target reaches its halfway point. Read a low DC50 as degradation at low concentration. One may read the Dmax as the greatest extent of degradation seen. A higher Dmax goes with deep degradation. For the compound `CN1CCC[C@@H]1c1cc2cnc(NC(=O)c3ccc(CCCCC#Cc4cccc5c4CN(C4CCC(=O)NC4=O)C5=O)cc3)cc2[nH]1` (mixture of isomers) [Example 8, 4-(6-(2-(2,6-dioxopiperidin-3-yl)-1-oxoisoindolin-4-yl)hex-5-yn-1-yl)-N-(2-((R)-1-methylpyrrolidin-2-yl)-1H-pyrrolo[3,2-c]pyridin-6-yl)benzamide], on MLLT1 [1] (0.01 μM), the “MLLT1% Degradation @ 0.01 μM” value is “A (Category A: A ≥ 75% degradation)”. For the same compound, the “MLLT1% Degradation @ 0.1 μM” value on MLLT1 [1] (0.1 μM) was “A (Category A: A ≥ 75% degradation)”. In addition, the “MLLT1% Degradation @ 1 μM” value on MLLT1 [1] (1 μM) is on record as “A (Category A: A ≥ 75% degradation)”. On MLLT1 [2], this compound returned a DC50 of 0.4 nM and a maximal degradation (Dmax) of 87%. In the assay on MV4-11 cells (168 h (7 days), CTG 2.0, read-out: IC50 (MV4-11 cellular proliferative assay, Assay format B)), the IC50 is at most 100 nM. Also, the IC50 with MV4-11 cells (setting [3]) stood at 1.5 nM.
On MLLT1 [2], `O=C1CCC(N2Cc3c(C#CCCCCc4ccc(C(=O)Nc5cc6[nH]c(CN7CCCC7)cc6cn5)cc4)cccc3C2=O)C(=O)N1` (stereo not shown) [Example 234, 4-(6-(2-(2,6-dioxopiperidin-3-yl)-1-oxoisoindolin-4-yl)hex-5-yn-1-yl)-N-(2-(pyrrolidin-1-ylmethyl)-1H-pyrrolo[3,2-c]pyridin-6-yl)benzamide] displayed a DC50 of 6.4 nM and a Dmax of 60%. In the assay with MV4-11 cells (setting [3]), the IC50 is above 1000 nM.
